Assay results as given in patent publication US10407381B2 (THE BOARD OF TRUSTEES OF THE UNIVERSITY OF ILLINOIS, priority 2015, dated 2019).
Like-named read-outs stand apart in the source and are kept apart here.

Legend:
5-HT2B = 5-HT2B (Homo sapiens, UniProt P41595); experiment: Calcium flux (FLIPR) assay, human 5-HT2B stably expressed in HEK-293 (Flp-In-293) cells; settings: for Emax, % 5-HT 5-HT2B: normalized to 5-HT
human 5-HT2C-INI = target: T1, human 5-HT2C-INI (Homo sapiens, UniProt P28335); experiment: Calcium flux (FLIPR) assay, human 5-HT2C-INI stably expressed in HEK-293 (Flp-In-293) cells; settings: human 5-HT2C-INI in HEK-293 cells, FLIPR; for Emax, % 5-HT 5-HT2C: normalized to 5-HT; for EC50: NA = no activity at 10 μM
T1 sequence (P28335 33-458): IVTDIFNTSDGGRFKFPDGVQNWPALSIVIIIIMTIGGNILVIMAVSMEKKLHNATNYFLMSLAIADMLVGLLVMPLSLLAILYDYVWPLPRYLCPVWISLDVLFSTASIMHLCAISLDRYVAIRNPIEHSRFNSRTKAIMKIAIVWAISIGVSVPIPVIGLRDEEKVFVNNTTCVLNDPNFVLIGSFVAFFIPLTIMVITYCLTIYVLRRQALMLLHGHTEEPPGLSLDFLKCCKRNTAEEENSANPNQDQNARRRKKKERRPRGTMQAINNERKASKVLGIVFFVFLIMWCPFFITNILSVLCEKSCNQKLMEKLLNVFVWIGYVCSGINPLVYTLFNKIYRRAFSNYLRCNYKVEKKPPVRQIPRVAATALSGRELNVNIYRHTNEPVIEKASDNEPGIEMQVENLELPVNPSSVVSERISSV

5-HT2A = 5-HT2A (Homo sapiens, UniProt P28223); experiment: Calcium flux (FLIPR) assay, human 5-HT2A stably expressed in HEK-293 (Flp-In-293) cells; settings: for Emax, % 5-HT 5-HT2A: normalized to 5-HT
Chain of 5-HT2A (P28223 whole entry): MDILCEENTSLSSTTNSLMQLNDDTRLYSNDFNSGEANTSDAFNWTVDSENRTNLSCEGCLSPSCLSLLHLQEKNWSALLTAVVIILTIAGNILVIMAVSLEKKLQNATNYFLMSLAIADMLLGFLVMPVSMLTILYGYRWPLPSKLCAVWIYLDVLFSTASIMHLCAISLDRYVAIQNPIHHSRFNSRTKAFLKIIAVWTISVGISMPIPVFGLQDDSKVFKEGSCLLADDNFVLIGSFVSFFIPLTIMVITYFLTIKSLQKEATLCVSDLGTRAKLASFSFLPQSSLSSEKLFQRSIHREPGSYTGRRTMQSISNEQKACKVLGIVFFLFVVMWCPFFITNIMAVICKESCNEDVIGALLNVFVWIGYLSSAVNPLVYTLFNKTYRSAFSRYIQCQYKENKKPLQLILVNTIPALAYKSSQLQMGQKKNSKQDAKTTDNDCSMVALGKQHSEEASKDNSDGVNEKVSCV

[1] = read-out: EC50, nM 5-HT2B, human 5-HT2B in HEK-293 cells, NA = no activity at 10 μM
[2] = human 5-HT2A in HEK-293 cells, FLIPR
[3] = read-out: EC50, nM 5-HT2A, human 5-HT2A in HEK-293 cells, FLIPR, NA = no activity at 10 μM
[4] = EC50, nM 5-HT2B, human 5-HT2B in HEK-293 cells, NA = no activity at 10 μM
[5] = EC50, nM 5-HT2A, human 5-HT2A in HEK-293 cells, FLIPR, NA = no activity at 10 μM

Chain of 5-HT2B (P41595 whole entry): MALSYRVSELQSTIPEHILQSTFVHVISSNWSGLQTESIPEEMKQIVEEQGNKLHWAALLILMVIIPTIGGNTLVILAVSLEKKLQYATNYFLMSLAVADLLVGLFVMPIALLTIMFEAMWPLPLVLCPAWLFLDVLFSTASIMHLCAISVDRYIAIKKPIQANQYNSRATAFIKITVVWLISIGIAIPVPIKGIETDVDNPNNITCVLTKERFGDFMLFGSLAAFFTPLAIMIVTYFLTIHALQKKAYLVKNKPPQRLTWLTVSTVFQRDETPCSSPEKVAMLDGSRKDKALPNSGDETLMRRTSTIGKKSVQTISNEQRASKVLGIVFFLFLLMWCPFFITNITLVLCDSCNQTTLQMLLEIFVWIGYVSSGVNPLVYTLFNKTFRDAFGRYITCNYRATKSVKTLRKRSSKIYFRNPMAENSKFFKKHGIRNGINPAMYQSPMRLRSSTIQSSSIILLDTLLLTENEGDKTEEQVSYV

| Structure (SMILES) | Emax, % 5-HT 5-HT2B (5-HT2B; human 5-HT2B in HEK-293 cells) | EC50 (5-HT2B; [1]) [nM] | Emax, % 5-HT 5-HT2C (human 5-HT2C-INI) | EC50 (human 5-HT2C-INI; read-out: EC50, nM 5-HT2C) [nM] | Emax, % 5-HT 5-HT2A (5-HT2A; [2]) | EC50 (5-HT2A; [3]) [nM] | EC50 (5-HT2B; [4]) [nM] | EC50 (human 5-HT2C-INI; EC50, nM 5-HT2C) [nM] | EC50 (5-HT2A) [nM] | EC50 (5-HT2A; [5]) [nM] |
| --- | --- | --- | --- | --- | --- | --- | --- | --- | --- | --- |
| COc1ccc(Cl)c(Cl)c1C1CC1CN (single isomer, unassigned; (-)) [(−)-Example 36, (−)-(2-(2,3-Dichloro-6-methoxyphenyl)cyclopropyl)methanamine] | (62%) % 5-HT | 51 | (104%) % 5-HT | 0.95 | (88%) % 5-HT | 38 |  |  |  |  |
| NCC1CC1c1cc(Cl)c(Cl)cc1OCCF (single isomer, unassigned; (+)) [(+)-Example 34, (+)-(2-(4,5-Dichloro-2-(2-fluoroethoxy)phenyl)cyclopropyl)methanamine] | (40%) % 5-HT |  | (87%) % 5-HT |  |  |  | 15400 | 18 | 92 |  |
| C=C(C)COc1ccc(Cl)cc1C1CC1CN (single isomer, unassigned; (+)) [(+)-Example 24, (+)-(2-(5-Chloro-2-((2-methylallyl)oxy)phenyl)cyclopropyl)methanamine] | (32%) % 5-HT |  | (90%) % 5-HT |  | (26%) % 5-HT |  | 422 | 212 | 903 |  |
| COc1cc(F)c(F)cc1C1CC1CN (single isomer, unassigned; (+)) [(+)-Example 40, (+)-(2-(4,5-Difluoro-2-methoxyphenyl)cyclopropyl)methanamine] | (69%) % 5-HT |  | (108%) % 5-HT |  |  | 81 |  |  |  |  |
| CCOc1cc(F)c(F)cc1C1CC1CN (single isomer, unassigned; (+)) [(+)-Example 41, (+)-(2-(2-Ethoxy-4,5-difluorophenyl)cyclopropyl)methanamine] | (59%) % 5-HT |  | (105%) % 5-HT |  | (69%) % 5-HT |  | 55 | 2.9 |  | 260 |
| CC(C)Oc1ccc(Cl)cc1C1CC1CN (single isomer, unassigned; (+)) [(+)-Example 14, (+)-(2-(5-Chloro-2-isopropoxyphenyl)cyclopropyl)methanamine] | (37%) % 5-HT |  | (86%) % 5-HT |  | (19%) % 5-HT |  | 997 | 91 |  | 4000 |
| COc1cc(Cl)c(Cl)cc1C1CC1CN (single isomer, unassigned; (-)) [(−)-Example 33, (−)-(2-(4,5-Dichloro-2-methoxyphenyl)cyclopropyl)methanamine] | (16%) % 5-HT | 696 | (89%) % 5-HT | 14 | (75%) % 5-HT | 84 |  |  |  |  |
| C=CCOc1ccc(Cl)c(F)c1C1CC1CN (single isomer, unassigned; (+)) [(+)-Example 32, (+)-(2-(6-(Allyloxy)-3-chloro-2-fluorophenyl)cyclopropyl)methanamine] | (69%) % 5-HT |  | (90%) % 5-HT |  | (12%) % 5-HT |  | 6980 | 116 |  |  |
| COc1cc(F)c(Cl)cc1[C@@H]1C[C@H]1CN (single isomer, unassigned) [(+)-Example 1, (+)-(2-(5-Chloro-4-fluoro-2-methoxyphenyl)cyclopropyl)methanamine] | (59%) % 5-HT |  | (97%) % 5-HT |  | (93%) % 5-HT |  | 25 | 7.6 |  | 81 |
| CCOc1cc(F)c(Cl)cc1C1CC1CN (single isomer, unassigned; (+)) [(+)-Example 2, (+)-(2-(5-Chloro-2-ethoxy-4-fluorophenyl)cyclopropyl)methanamine] | (82%) % 5-HT |  | (92%) % 5-HT |  | (66%) % 5-HT |  | 286 | 4.1 |  | 194 |
| COc1cc(Cl)c(Cl)cc1C1CC1CN (single isomer, unassigned; (+)) [(+)-Example 33, (+)-(2-(4,5-Dichloro-2-methoxyphenyl)cyclopropyl)methanamine] |  | 31 | (95%) % 5-HT | 9.7 | (85%) % 5-HT | 21 |  |  |  |  |
| NCC1CC1c1cc(Cl)ccc1OCC(F)F (single isomer, unassigned; (+)) [(+)-Example 21, (+)-(2-(5-Chloro-2-(2,2-difluoroethoxy)phenyl)cyclopropyl)methanamine] | (27%) % 5-HT |  | (81%) % 5-HT |  | (31%) % 5-HT |  | 839 | 91 |  | 1810 |
| CCOc1ccc(F)c(Cl)c1C1CC1CN (single isomer, unassigned; (+)) [(+)-Example 51, (+)-(2-(2-Chloro-6-ethoxy-3-fluorophenyl)cyclopropyl)methanamine] | (56%) % 5-HT |  | (15%) % 5-HT |  | (47%) % 5-HT |  | 760 | 22 |  | 761 |
| NCC1CC1c1c(OCCF)ccc(Cl)c1Cl (single isomer, unassigned; (+)) [(+)-Example 38, (+)-(2-(2,3-Dichloro-6-(2-fluoroethoxy)phenyl)cyclopropyl)methanamine] | (99%) % 5-HT |  | (90%) % 5-HT |  | (22%) % 5-HT |  | 5520 | 232 | 949 |  |
| NCC1CC1c1cc(Cl)c(Cl)cc1OCCF (single isomer, unassigned; (-)) [(−)-Example 34, (−)-(2-(4,5-Dichloro-2-(2-fluoroethoxy)phenyl)cyclopropyl)methanamine] | (12%) % 5-HT |  | (75%) % 5-HT |  | (4%) % 5-HT |  |  | 435 |  |  |
| COc1ccc(F)c(F)c1C1CC1CN (single isomer, unassigned; (-)) [(−)-Example 45, (−)-(2-(2,3-Difluoro-6-methoxyphenyl)cyclopropyl)methanamine] | (62%) % 5-HT | 462 | (108%) % 5-HT | 16 | (72%) % 5-HT | 461 |  |  |  |  |
| C#CCOc1ccc(Cl)cc1C1CC1CN (single isomer, unassigned; (+)) [(+)-Example 26, (+)-(2-(5-Chloro-2-(prop-2-yn-1-yloxy)phenyl)cyclopropyl)methanamine] | (29%) % 5-HT |  | (65%) % 5-HT |  | (21%) % 5-HT |  | 4600 | 63 |  | 1010 |
| CCOc1ccc(Cl)c(F)c1C1CC1CN (single isomer, unassigned; (+)) [(+)-Example 30, (+)-(2-(3-Chloro-6-ethoxy-2-fluorophenyl)cyclopropyl)methanamine] | (36%) % 5-HT |  | (89%) % 5-HT |  | (53%) % 5-HT |  | 900 | 28 |  | 820 |
| COc1cc(F)c(Cl)cc1[C@@H]1C[C@H]1CN (single isomer, unassigned) [(−)-Example 1, (−)-(2-(5-Chloro-4-fluoro-2-methoxyphenyl)cyclopropyl)methanamine] | (44%) % 5-HT |  | (99%) % 5-HT |  | (88%) % 5-HT |  | 329 | 16 |  | 235 |
| CCCOc1ccc(F)cc1C1CC1CN (single isomer, unassigned; (+)) [(+)-Example 7, (+)-(2-(5-Fluoro-2-propoxyphenyl)cyclopropyl)methanamine] | (33%) % 5-HT |  | (88%) % 5-HT |  | (15%) % 5-HT |  | 1990 | 11 |  | 1020 |
| CCOc1ccc(Cl)c(F)c1C1CC1CN (single isomer, unassigned; (-)) [(−)-Example 30, (−)-(2-(3-Chloro-6-ethoxy-2-fluorophenyl)cyclopropyl)methanamine] | (51%) % 5-HT |  | (90%) % 5-HT |  | (31%) % 5-HT |  | 7420 | 97 |  | 819 |
